Test results from US10428080B2, “TBK/IKK inhibitor compounds and uses thereof” (Merck Patent GmbH, priority 2015, dated 2019).
Structures can show the parent of a compound that is named as a salt. Where two headings read alike, the source gives them in different places.

Key:
IKKε = biological target: T1, IKKε (Homo sapiens, UniProt Q14164); test: IKKe Biochemical Assay; conditions: read-out: IKKε IC50
T1 sequence (Q14164 1-716): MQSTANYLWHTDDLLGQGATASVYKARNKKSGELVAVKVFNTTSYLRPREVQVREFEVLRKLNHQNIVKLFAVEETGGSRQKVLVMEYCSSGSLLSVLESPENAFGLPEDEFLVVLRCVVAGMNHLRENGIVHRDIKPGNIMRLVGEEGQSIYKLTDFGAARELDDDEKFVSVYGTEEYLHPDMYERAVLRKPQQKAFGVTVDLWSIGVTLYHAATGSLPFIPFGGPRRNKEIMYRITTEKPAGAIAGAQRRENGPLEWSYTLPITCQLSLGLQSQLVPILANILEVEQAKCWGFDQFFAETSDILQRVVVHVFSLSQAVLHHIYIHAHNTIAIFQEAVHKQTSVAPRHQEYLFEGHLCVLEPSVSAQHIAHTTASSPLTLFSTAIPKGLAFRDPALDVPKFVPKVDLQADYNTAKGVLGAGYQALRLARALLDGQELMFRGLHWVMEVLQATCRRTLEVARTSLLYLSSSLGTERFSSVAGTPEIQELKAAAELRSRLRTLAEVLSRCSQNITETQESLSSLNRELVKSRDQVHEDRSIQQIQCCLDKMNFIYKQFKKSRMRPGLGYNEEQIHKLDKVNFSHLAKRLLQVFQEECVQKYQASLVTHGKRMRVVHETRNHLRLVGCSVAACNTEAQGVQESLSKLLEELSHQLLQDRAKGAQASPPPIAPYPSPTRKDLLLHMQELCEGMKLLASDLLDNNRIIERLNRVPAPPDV
Method in brief: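 Recombinant IKKε and substrate were incubated with compound (10-point 1:4 series, top 30 uM final, 1% DMSO) for 90 min at 25° C, then stopped. Substrate-to-product conversion was read by LabChip microfluidic mobility shift; 10 uM staurosporine served as full-inhibition wells.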

[1] = tested on: phosphorylation of the IRF-3 protein in MDA-MB-468 cells; test: pIRF3 immunocytochemistry cell based assay; conditions: MDA-MB-468 cells, Poly(I:C) stimulation, read-out: pIRF3 IC50
Method in brief: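 MDA-MB-468 cells got compounds (10-point, 3-fold from 10 uM) for 1 h at 37 °C, then 10 ug/ml Poly(I:C) for 2 h. Fixed, permeabilized cells were immunostained for pIRF3 with AlexaFluor488 and counterstained with PI. % phosphorylation was read by laser scanning cytometry, and IC50 curves were fitted.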

TBK1 = biological target: T2, TBK1 (Homo sapiens, UniProt Q9UHD2); test: TBK Biochemical Assay; conditions: read-out: TBK1 IC50
T2 sequence (Q9UHD2 1-729): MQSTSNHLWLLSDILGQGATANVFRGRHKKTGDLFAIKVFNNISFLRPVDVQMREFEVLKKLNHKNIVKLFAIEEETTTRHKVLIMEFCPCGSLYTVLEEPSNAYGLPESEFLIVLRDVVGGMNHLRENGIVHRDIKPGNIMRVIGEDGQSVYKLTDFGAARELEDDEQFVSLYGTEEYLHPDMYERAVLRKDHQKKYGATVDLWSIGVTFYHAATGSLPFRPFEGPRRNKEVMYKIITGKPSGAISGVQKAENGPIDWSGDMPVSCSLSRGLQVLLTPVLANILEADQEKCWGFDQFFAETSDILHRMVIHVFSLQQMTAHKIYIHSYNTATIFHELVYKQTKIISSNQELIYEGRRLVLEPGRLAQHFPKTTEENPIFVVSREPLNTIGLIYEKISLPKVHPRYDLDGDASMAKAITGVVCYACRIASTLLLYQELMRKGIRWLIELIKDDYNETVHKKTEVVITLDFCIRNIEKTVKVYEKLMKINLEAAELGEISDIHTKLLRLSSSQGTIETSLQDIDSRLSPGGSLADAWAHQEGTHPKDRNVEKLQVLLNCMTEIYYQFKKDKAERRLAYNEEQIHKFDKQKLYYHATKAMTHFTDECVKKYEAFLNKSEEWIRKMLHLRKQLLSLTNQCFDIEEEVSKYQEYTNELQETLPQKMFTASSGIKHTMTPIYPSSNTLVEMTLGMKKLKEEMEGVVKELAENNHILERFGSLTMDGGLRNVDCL
Method in brief: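 TBK1 enzyme and substrate incubated with compounds (10-point 1:4 dilution, top 30 uM final, 1% DMSO) for 90 min at 25° C, then stopped. Substrate/product peaks read by microfluidic mobility-shift (Caliper LabChip); 10 uM staurosporine as full-inhibition control.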

Row | IC50 (IKKε) [nM] | IC50 ([1]; Homo sapiens) [nM] | IC50 (TBK1) [nM] | Compound | IC50 [1] [nM]
1 | < 100 | < 100 | < 100 | COc1cc(C(=O)N2C[C@@H]3C[C@H]2CN3C)ccc1-c1cc2nccc(-c3ccc(NC4CCOCC4)c(C#N)c3)c2o1 [Compound 515] | –
2 | < 100 | < 100 | < 100 | COc1cc(C(=O)N2CCN(C)CC2)ncc1-c1cc2nccc(-c3ccc(N4CC[C@H](F)C4)c(C#N)c3)c2o1 [Compound 463, 2-((S)-3-Fluoro-pyrrolidin-1-yl)-5-{2-[4-methoxy-6-(4-methyl-piperazine-1-carbonyl)-pyridin-3-yl]-furo[3,2-b]pyridin-7-yl}-benzonitrile] | –
3 | < 100 | < 100 | < 100 | COc1cc(C(=O)N2CCN(C)CC2)cnc1-c1cc2nccc(-c3ccc(N4CC[C@H](F)C4)c(C#N)c3)c2o1 [Compound 461, 2-(3(S)-fluoropyrrolidin-1-yl)-5-(2-[3-methoxy-5-[(4-methylpiperazin-1-yl)carbonyl]pyridin-2-yl]furo[3,2-b]pyridin-7-yl)benzonitrile] | –
4 | < 100 | 100 to 1000 | < 100 | COc1cc(C(=O)N2CCN(C)CC2)cnc1-c1cc2nccc(-c3ccc(N4CCC(F)C4)c(C#N)c3)c2o1 (stereo not drawn) [Compound 460, 2-(3-fluoropyrrolidin-1-yl)-5-(2-[3-methoxy-5-[(4-methylpiperazin-1-yl)carbonyl]pyridin-2-yl]furo[3,2-b]pyridin-7-yl)benzonitrile] | –
5 | < 100 | 100 to 1000 | < 100 | COc1cc(C(=O)N2CCCCN2)ccc1-c1cc2nccc(-c3ccc(OC4CCOCC4)c(C#N)c3)c2o1 [Compound 482, 5-{2-[2-Methoxy-4-(tetrahydro-pyridazine-1-carbonyl)-phenyl]-furo[3,2-b]pyridin-7-yl}-2-(tetrahydro-pyran-4-yloxy)-benzonitrile] | –
6 | < 100 | 100 to 1000 | < 100 | COc1cc(C(=O)N2CC(O)C2)ccc1-c1cc2nccc(-c3ccc(N4CC[C@@H](F)C4)c(C#N)c3)c2o1 [Compound 497, 2-((R)-3-Fluoro-pyrrolidin-1-yl)-5-{2-[4-(3-hydroxy-azetidine-1-carbonyl)-2-methoxy-phenyl]-furo[3,2-b]pyridin-7-yl}-benzonitrile] | –
7 | < 100 | 100 to 1000 | < 100 | COc1cc(C(N)=O)ccc1-c1cc2nccc(-c3ccc(OC4CCOCC4)c(C#N)c3)c2o1 [Compound 40, 4-{7-[3-Cyano-4-(tetrahydro-pyran-4-yloxy)-phenyl]-furo[3,2-b]pyridin-2-yl}-3-methoxy-benzamide] | –
8 | < 100 | < 100 | < 100 | COc1cc(C(=O)N2CC3CCC2CN3C)ccc1-c1cc2nccc(-c3ccc(NC4CCOCC4)c(C#N)c3)c2o1 (stereo not drawn) [Compound 510] | –
9 | < 100 | 100 to 1000 | < 100 | COc1cc(C(=O)N2CCN(C)CC2)ccc1-c1cc2nccc(-c3ccc(N4CC[C@H](F)C4)c(C#N)c3)c2o1 [Compound 16, 2-((S)-3-Fluoro-pyrrolidin-1-yl)-5-{2-[2-methoxy-4-(4-methyl-piperazine-1-carbonyl)-phenyl]-furo[3,2-b]pyridin-7-yl}-benzonitrile] | –

Continued, compound first:

Row | Compound | IC50 (IKKε) [nM] | IC50 ([1]; Homo sapiens) [nM] | IC50 (TBK1) [nM] | IC50 [1] [nM]
10 | N#Cc1cc(-c2ccnc3cc(-c4ccc(C(=O)N[C@@H]5CNCC[C@H]5F)cc4)oc23)ccc1OC1CCOCC1 [Compound 141, 4-{7-[3-Cyano-4-(tetrahydro-pyran-4-yloxy)-phenyl]-furo[3,2-b]pyridin-2-yl}-N-((3R,4R)-4-fluoro-piperidin-3-yl)-benzamide] | < 100 | 100 to 1000 | < 100 | –
11 | COc1cc(C(=O)N(C)C)ccc1-c1cc2nccc(-c3ccc(OC4CCNCC4(F)F)c(C#N)c3)c2o1 (stereo not drawn) [Compound 71, 4-{7-[3-Cyano-4-(3,3-difluoro-piperidin-4-yloxy)-phenyl]-furo[3,2-b]pyridin-2-yl}-3-methoxy-N,N-dimethyl-benzamide hydrochloride] | < 100 | < 100 | < 100 | –
12 | COc1cc(C(=O)NC(C)(C)CCN(C)C)ncc1-c1cc2nccc(-c3ccc(NC4CCOCC4)c(C#N)c3)c2o1 [Compound 423, 5-(7-[3-cyano-4-[(oxan-4-yl)amino]phenyl]furo[3,2-b]pyridin-2-yl)-N-[4-(dimethylamino)-2-methylbutan-2-yl]-4-methoxypyridine-2-carboxamide] | < 100 | 100 to 1000 | < 100 | –
13 | COc1cc(C(=O)N(C)C)ccc1-c1cc2nccc(-c3cnc(OC4CCOCC4)c(C#N)c3)c2o1 [Compound 109, 4-{7-[5-Cyano-6-(tetrahydro-pyran-4-yloxy)-pyridin-3-yl]-furo[3,2-b]pyridin-2-yl}-3-methoxy-N,N-dimethyl-benzamide] | < 100 | 100 to 1000 | < 100 | –
14 | COc1cc(C(=O)N(C)C)ncc1-c1cc2nccc(-c3ccc(OC4CCN(C)CC4(F)F)c(C#N)c3)c2o1 (stereo not drawn) [Compound 419, 5-(7-[3-cyano-4-[(3,3-difluoro-1-methylpiperidin-4-yl)oxy]phenyl]furo[3,2-b]pyridin-2-yl)-4-methoxy-N,N-dimethylpyridine-2-carboxamide] | < 100 | 100 to 1000 | < 100 | –
15 | COc1cc(C(=O)NCC(C)(C)CN(C)C)ccc1-c1cc2nccc(-c3ccc(OC4CCOCC4)c(C#N)c3)c2o1 [Compound 506, 4-{7-[3-Cyano-4-(tetrahydro-pyran-4-yloxy)-phenyl]-furo[3,2-b]pyridin-2-yl}-N-(3-dimethylamino-2,2-dimethyl-propyl)-3-methoxy-benzamide] | < 100 | 100 to 1000 | < 100 | –
16 | COc1cc(C(=O)N(C)C)ccc1-c1cc2ncc(F)c(-c3ccc(OC4CCOCC4)c(C#N)c3)c2o1 [Compound 298, 4-[7-[3-cyano-4-(oxan-4-yloxy)phenyl]-6-fluorofuro[3,2-b]pyridin-2-yl]-3-methoxy-N,N-dimethylbenzamide] | < 100 | 100 to 1000 | < 100 | –
17 | COc1cc(C(=O)NCC2CCNCC2)ccc1-c1cc2nccc(-c3ccc(OC4CCOCC4)c(C#N)c3)c2o1 [Compound 92, 4-{7-[3-Cyano-4-(tetrahydro-pyran-4-yloxy)-phenyl]-furo[3,2-b]pyridin-2-yl}-3-methoxy-N-piperidin-4-ylmethyl-benzamide hydrochloride] | < 100 | 100 to 1000 | < 100 | –
18 | COc1cc(C(=O)N(C)C)ncc1-c1cc2nccc(-c3ccc(OC4CCOCC4)c(C#N)c3)c2o1 [Compound 326, 5-[7-[3-cyano-4-(oxan-4-yloxy)phenyl]furo[3,2-b]pyridin-2-yl]-4-methoxy-N,N-dimethylpyridine-2-carboxamide] | < 100 | < 100 | < 100 | –
19 | COc1cc(C(=O)NC2CN3CCC2CC3)cnc1-c1cc2nccc(-c3ccc(N4CC[C@H](F)C4)c(C#N)c3)c2o1 (stereo partly drawn) [Compound 441, N—(R)-1-Aza-bicyclo[2.20.2]oct-3-yl-6-{7-[3-cyano-4-((S)-3-fluoro-pyrrolidin-1-yl)-phenyl]-furo[3,2-b]pyridin-2-yl}-5-methoxy-nicotinamide] | < 100 | – | < 100 | 100 to 1000
